Counter-ions that a name gives are not always drawn.
The compounds below were run against T1, recombinant human CXCR2 (Homo sapiens, UniProt P25025) (assay: CXCR2 Tango assay). Conditions: mean pIC50 of multiple test results; stimulated with 80 nM hCXCL1; reporter gene blue/green emission ratio; read-out: pIC50 (CXCR2 Tango assay) (converted).
T1 construct: TEV protease site; Gal4-VP16 transcription factor
T1 sequence (P25025 1-360): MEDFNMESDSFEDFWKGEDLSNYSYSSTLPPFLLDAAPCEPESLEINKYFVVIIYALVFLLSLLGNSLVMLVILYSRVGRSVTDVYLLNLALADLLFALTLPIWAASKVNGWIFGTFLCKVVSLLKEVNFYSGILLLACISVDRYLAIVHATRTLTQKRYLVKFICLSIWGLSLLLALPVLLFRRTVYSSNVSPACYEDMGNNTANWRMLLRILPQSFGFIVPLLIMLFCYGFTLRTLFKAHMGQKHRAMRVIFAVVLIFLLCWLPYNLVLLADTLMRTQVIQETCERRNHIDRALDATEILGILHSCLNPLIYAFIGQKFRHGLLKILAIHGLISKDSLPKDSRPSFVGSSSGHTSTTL
Type: cell-based
Excerpt: The assay measures ligand-induced activation of the receptor CXCR2 in a stable cell line containing the recombinant human CXCR2 linked to a TEV protease site and a Gal4-VP16 transcription factor (Invitrogen). Ligand binding to the receptor results in the recruitment of arrestin proteins (tagged with protease) to the receptor and triggers the release of a tethered transcription factor. The transcription factor enters the nucleus and activates the transcription of the reporter gene. The ability of a compound to inhibit CXCR2 activation is indirectly assessed by measuring the reporter gene activity.
A vial of cryopreserved cells was removed from liquid nitrogen and rapidly thawed in a water bath at 37° C. with gentle agitation. The contents of the vial were transferred drop-wise into Thawing Medium in a sterile 15 ml conical tube and then centrifuged at 1000 rpm for 4-5 min. Then the cell pellets were resuspended in Assay Medium at a density of ˜200,000 cells/ml. All test compounds were dissolved in DMSO at a concentration of 10 mM and were prepared in 100% DMSO to provide 10 point dose response curves. A reference CXCR2 antagonist was added to wells in row 2, columns 1-5 & 7-11. Exemplified compounds 1-4, 7, 8-10, 13-22, 24-26, 28-30, 32, 33, 36, 37, 40, 42-44. 95-110, 115-118, 120, 121, 125, 126, 129-134, 137, 138, 140, 142, 147-149, 153-157, 159-162, 163-166, 168, 170, 172, 174-180 and 202 were tested using the CXCR2 antagonist sodium 3-chloro-6-(3-(2,3-dichlorophenyl)ureido)-2-sulfamoylphenolate as reference compound (Reference Compound 1) (published International patent application WO2002/079122). […] Test compounds were added to wells in row 2, columns 13-17 & 19-23 and rows 3-15, columns 1-5 & 7-11/13-17 & 19-23 (columns 6 and 18 as positive controls and un-stimulated controls respectively; columns 12 and 24 as cell-free control). Compounds in solution were added to the assay plate (Greiner 781090) using an Echo (Labcyte) concentration-response program (50 nl/well). The cell-free, un-stimulated and positive controls were loaded with 50 nl/well pure DMSO to ensure that the DMSO concentration was constant across the plate for all assays. Using Multi-drop Combi (Thermo) with standard cassette, 50 μl of Assay Medium was added to each well in the cell-free controls (columns 12 and 24); 50 μl of the cell suspension without hCXCL1 (a CXCR2 ligand) was added to each well in column 18 of the plate (˜10,000 cells per well); and 50 μl of the cell suspension with 80 nM hCXCL1 was added to the rest of wells of the plate (˜10,000 cells per well). The cells were incubated overnight at 37° C./5% CO2. 10 μl of 6× substrate mixture (LiveBLAzer™-FRET B/G substrate (CCF4-AM) Cat # K1096 from Invitrogen, Inc.) was added to each well using Multi-drop Combi (Thermo) with small-tube cassette and the plates incubated at room temperature for 2 h in the dark. The plate was finally read on EnVision using one excitation channel (409 nm) and two emission channels (460 nm and 530 nm).
The blue/green emission ratio (460 nm/530 nm) was calculated for each well, by dividing the background-subtracted Blue emission values by the background-subtracted Green emission values. The dose response curve was based on sigmoidal dose-response model. All ratio data was normalized based upon the maximum emission ratio of positive control (hCXCL1) and minimum emission ratio of negative control (DMSO) on each plate. The intrinsic activity (IA) of each compound would be the normalized percentage of its maximum response after curve fitting.
All exemplified compounds (except for Compounds 203 and 204) were tested in the CXCR2 Tango assay or a similar assay described above. The data mentioned below represents a mean pIC 50 value of multiple test results. It is understood that the data illustrated below may have reasonable variation depending on the specific conditions and procedures used by the person conducting the testing.
For `CC1=CCCC1NC(=O)Nc1ccc(Cl)c(S(=O)(=O)C(C)c2ncccn2)c1O` (stereo not shown) [Compound 29, 1-(4-chloro-2-hydroxy-3-((1-(pyrimidin-2-yl)ethyl)sulfonyl)phenyl)-3-(2-methylcyclopent-2-en-1-yl)urea, trifluoroacetic acid salt], the IC50 was ≤ 10 nM. With `CC(c1ncccn1)S(=O)(=O)c1c(Cl)ccc(NC(=O)NC2CCC=C2Cl)c1O` (stereo not shown) [Compound 30, 1-(4-chloro-2-hydroxy-3-((1-(pyrimidin-2-yl)ethyl)sulfonyl)phenyl)-3-(2-chlorocyclopent-2-en-1-yl)urea] the IC50 was ≤ 10 nM. With `CC1=CCC[C@H]1NC(=O)Nc1ccc(Cl)c(S(=O)(=O)C(C)CO)c1O` (stereo partly drawn) [Compound 34, 1-(4-chloro-2-hydroxy-3-((1-hydroxypropan-2-yl)sulfonyl)phenyl)-3-((R)-2-methylcyclopent-2-en-1-yl)urea] the IC50 was ≤ 10 nM. In the case of `CC(F)(F)S(=O)(=O)c1c(Cl)ccc(NC(=O)NC2C=CCC2)c1O` (stereo not shown) [Compound 36, 1-(4-chloro-3-((1,1-difluoroethyl)sulfonyl)-2-hydroxyphenyl)-3-(cyclopent-2-en-1-yl)urea], the IC50 is reported as ≤ 10 nM. `CC(F)(F)S(=O)(=O)c1c(Cl)ccc(NC(=O)NC2CCC=C2Cl)c1O` (stereo not shown) [Compound 37, 1-(4-chloro-3-((1,1-difluoroethyl)sulfonyl)-2-hydroxyphenyl)-3-(2-chlorocyclopent-2-en-1-yl)urea] was tested, and the IC50 was ≤ 1 nM. For `CC1(S(=O)(=O)c2c(Cl)ccc(NC(=O)N[C@@H]3CCC=C3Cl)c2O)CC(O)C1` (stereo partly drawn) [Compound 38, (R)-1-(4-chloro-2-hydroxy-3-((3-hydroxy-1-methylcyclobutyl)sulfonyl)phenyl)-3-(2-chlorocyclopent-2-en-1-yl)urea], the IC50 was ≤ 1 nM. `CC1(S(=O)(=O)c2c(Cl)ccc(NC(=O)NC3CCC=C3Cl)c2O)CCOCC1` (stereo not shown) [Compound 44, 1-(4-chloro-2-hydroxy-3-((4-methyltetrahydro-2H-pyran-4-yl)sulfonyl)phenyl)-3-(2-chlorocyclopent-2-en-1-yl)urea] was tested, and the IC50 was ≤ 10 nM. For `CC1=CCC[C@H]1NC(=O)Nc1ccc(Cl)c(S(=O)(=O)[C@@H]2CCCC[C@H]2O)c1O` [Compound 46, 1-(4-chloro-2-hydroxy-3-((trans-2-hydroxycyclohexyl)sulfonyl)phenyl)-3-((R)-2-methylcyclopent-2-en-1-yl)urea], the IC50 was ≤ 1 nM. With `CC1=CCC[C@H]1NC(=O)Nc1ccc(Cl)c(S(=O)(=O)[C@H]2C[C@H](C(F)F)C2)c1O` [Compound 48, 1-(4-chloro-3-((trans-3-(difluoromethyl)cyclobutyl)sulfonyl)-2-hydroxyphenyl)-3-((R)-2-methylcyclopent-2-en-1-yl)urea] the IC50 was ≤ 1 nM. `CC1=CCC[C@H]1NC(=O)Nc1ccc(Cl)c(S(=O)(=O)[C@H]2C[C@H](F)C2)c1O` [Compound 50, 1-(4-chloro-3-((trans-3-fluorocyclobutyl)sulfonyl)-2-hydroxyphenyl)-3-((R)-2-methylcyclopent-2-en-1-yl)urea] was tested, and the IC50 was ≤ 1 nM. `CC1=CCC[C@H]1NC(=O)Nc1ccc(Cl)c(S(=O)(=O)C2CCC[C@H](O)C2)c1O` (stereo partly drawn) [Compound 52, 1-(4-chloro-2-hydroxy-3-((trans-3-hydroxycyclohexyl)sulfonyl)phenyl)-3-((R)-2-methylcyclopent-2-en-1-yl)urea] was tested, and the IC50 was ≤ 1 nM. `CC1=CCC[C@H]1NC(=O)Nc1ccc(Cl)c(S(=O)(=O)C(C)(C)[C@@H]2CCOC2)c1O` [Compound 55, 1-(4-chloro-2-hydroxy-3-((2-((R)-tetrahydrofuran-3-yl)propan-2-yl)sulfonyl)phenyl)-3-((R)-2-methylcyclopent-2-en-1-yl)urea] was tested, and the IC50 was ≤ 10 nM. In the case of `CC1=CCC[C@H]1NC(=O)Nc1ccc(Cl)c(S(=O)(=O)C(C)(C)C(F)(F)F)c1O` [Compound 58, (R)-1-(4-chloro-2-hydroxy-3-((1,1,1-trifluoro-2-methylpropan-2-yl)sulfonyl)phenyl)-3-(2-methylcyclopent-2-en-1-yl)urea], the IC50 is reported as ≤ 1 nM. In the case of `CC1=CCC[C@H]1NC(=O)Nc1ccc(Cl)c(S(=O)(=O)C(C)(C)C2COC2)c1O` [Compound 61, (R)-1-(4-chloro-2-hydroxy-3-((2-(oxetan-3-yl)propan-2-yl)sulfonyl)phenyl)-3-(2-methylcyclopent-2-en-1-yl)urea], the IC50 is reported as ≤ 1 nM. `CC1=CCC[C@H]1NC(=O)Nc1ccc(Cl)c(S(=O)(=O)C(F)(F)c2ccccn2)c1O` [Compound 63, (R)-1-(4-chloro-3-((difluoro(pyridin-2-yl)methyl)sulfonyl)-2-hydroxyphenyl)-3-(2-methylcyclopent-2-en-1-yl)urea, trifluoroacetic acid salt] was tested, and the IC50 was ≤ 1 nM. `CC1=CCC[C@H]1NC(=O)Nc1ccc(Cl)c(S(=O)(=O)C2(C)CC3(COC3)C2)c1O` [Compound 65, (R)-1-(4-chloro-2-hydroxy-3-((6-methyl-2-oxaspiro[3.3]heptan-6-yl)sulfonyl)phenyl)-3-(2-methylcyclopent-2-en-1-yl)urea] was tested, and the IC50 was ≤ 10 nM. For `CC1=CCC[C@H]1NC(=O)Nc1ccc(Cl)c(S(=O)(=O)C2(C)CCN(C3CCC3)CC2)c1O` [Compound 67, (R)-1-(4-chloro-3-((1-cyclobutyl-4-methylpiperidin-4-yl)sulfonyl)-2-hydroxyphenyl)-3-(2-methylcyclopent-2-en-1-yl)urea, trifluoroacetic acid salt], the IC50 was ≤ 10 nM. In the case of `CC1=CCC[C@H]1NC(=O)Nc1ccc(Cl)c(S(=O)(=O)C2(F)CCN(C3CCC3)CC2)c1O` [Compound 73, (R)-1-(4-chloro-3-((1-cyclobutyl-4-fluoropiperidin-4-yl)sulfonyl)-2-hydroxyphenyl)-3-(2-methylcyclopent-2-en-1-yl)urea, trifluoroacetic acid salt], the IC50 is reported as ≤ 1 nM. `CC1=CCC[C@H]1NC(=O)Nc1ccc(Cl)c(S(=O)(=O)C2(F)CCOC2)c1O` (stereo partly drawn) [Compound 74, 1-(4-chloro-3-((3-fluorotetrahydro-furan-3-yl)sulfonyl)-2-hydroxyphenyl)-3-((R)-2-methylcyclopent-2-en-1-yl)urea] was tested, and the IC50 was ≤ 1 nM. In the case of `CC1=CCC[C@H]1NC(=O)Nc1ccc(Cl)c(S(=O)(=O)C2CC3(COC3)C2)c1O` [Compound 77, (R)-1-(3-(2-oxaspiro[3.3]heptan-6-ylsulfonyl)-4-chloro-2-hydroxyphenyl)-3-(2-methylcyclopent-2-en-1-yl)urea], the IC50 is reported as ≤ 1 nM. With `CC1=CCC[C@H]1NC(=O)Nc1ccc(Cl)c(S(=O)(=O)C2CCN(CC(F)F)CC2)c1O` [Compound 80, (R)-1-(4-chloro-3-((1-(2,2-difluoroethyl)piper-idin-4-yl)sulfonyl)-2-hydroxyphenyl)-3-(2-methylcyclopent-2-en-1-yl)urea trifluoroacetic acid salt] the IC50 was ≤ 10 nM. For `[2H]C1(S(=O)(=O)c2c(Cl)ccc(NC(=O)N[C@@H]3CCC=C3C)c2O)CCN(C2CCC2)CC1` [Compound 81, (R)-1-(4-chloro-3-((1-cyclobutylpiperidin-4-yl)sulfonyl)-2-hydroxyphenyl)-3-(2-methylcyclopent-2-en-1-yl)urea-d1, trifluoroacetic acid salt], the IC50 was ≤ 1 nM.
